For 29 compounds, inhibition of growth and IC50 results are on record in ChEMBL document CHEMBL2040820, “Synthesis and selective cytotoxic activity of novel hybrid chalcones against prostate cancer cells” (Bioorg Med Chem Lett, 2012).

pIC50: −log10 of the molar value.

Assay [1] has as its system PC-3. The experiment in a line: Growth inhibition of human PC3 cells at 100 uM after 48 hrs by MTT assay. The class given is functional. To be noted: PC-3, 48 h, read-out: GI. On the technique in general: Tetrazolium dyes change colour on reduction, which living cells bring about.
The test system of assay [2] is B16. The experiment in a line: Anticancer activity against mouse B16 cells after 48 hrs by MTT assay. In kind it is functional, cell-based. The note with it: B16, 48 h.
Assay [3] deals with HT-29. The experiment in a line: Growth inhibition of human HT-29 cells at 100 uM after 48 hrs by MTT assay. The class given is functional. The note with it: HT-29, 48 h, read-out: GI.
Assay [4] deals with NCI-H460. The experiment in a line: Anticancer activity against human NCI-H460 cells after 48 hrs by MTT assay. The class given is functional, cell-based. The note with it: NCI-H460, 48 h.
Assay [5] concerns HT-29. The experiment in a line: Anticancer activity against human HT-29 cells after 48 hrs by MTT assay. The class given is functional, cell-based. The note with it: HT-29, 48 h.
Assay [6] relates to NCI-H460. The experiment in a line: Growth inhibition of human NCI-H460 cells at 100 uM after 48 hrs by MTT assay. In kind it is functional. The note with it: NCI-H460, 48 h, read-out: GI.
Assay [7] concerns PC-3. The experiment in a line: Anticancer activity against human PC3 cells after 48 hrs by MTT assay. To be noted: PC-3, 48 h. In kind it is functional, cell-based.
The subject of assay [8] is B16. The experiment in a line: Growth inhibition of mouse B16 cells at 100 uM after 48 hrs by MTT assay. In kind it is functional. The note with it: B16, 48 h, read-out: GI.

Usually pIC50 stands for −log10 of the IC50, conventionally taken in molar units. Low values mean a high IC50, high ones a low IC50.

Turning to `CC1(C)Cc2c(OCc3ccccc3)ccc(C(=O)/C=C/c3ccc(F)cc3)c2O1`, the inhibition of growth at 100 µM in the assay with PC-3 [1] and in the assay on HT-29 [3] was less than 10% throughout. Besides, the pIC50 was less than 4.00 in the assay with B16 [2] and 4.65 with NCI-H460 [4].

As to `CC1(C)Cc2c(ccc(C(=O)/C=C/c3ccc(Cl)cc3Cl)c2OCc2ccccc2)O1`, the inhibition of growth at 100 µM in the assay with PC-3 [1] was less than 10%. Moreover, the pIC50 in the assay on B16 [2], in the assay on HT-29 [5] and in the assay with NCI-H460 [4] was less than 4.00 throughout.

Regarding `CC1(C)Cc2c(OCc3ccccc3)ccc(C(=O)/C=C/c3ccc(Cl)cc3)c2O1`, the inhibition of growth at 100 µM with NCI-H460 [6] and in the assay on HT-29 [3] was less than 10% in each case. In addition, the negative logarithm of the IC50 (pIC50) with B16 [2] and in the assay with PC-3 [7] was less than 4.00 each time.

With `CC1(C)Cc2c(ccc(C(=O)/C=C/c3ccc(Cl)cc3)c2OCc2ccccc2)O1`, the pIC50 in the assay on HT-29 [5], in the assay on NCI-H460 [4] and in the assay with PC-3 [7] was less than 4.00 each time. In addition, the inhibition of growth at 100 µM with B16 [8] was less than 10%.

As for `CC1(C)Cc2c(ccc(C(=O)/C=C/c3cn(-c4ccccc4)nc3-c3cccc([N+](=O)[O-])c3)c2OCc2ccccc2)O1`, the pIC50 was less than 4.30 in the assay on B16 [2], less than 4.00 with HT-29 [5], less than 4.00 in the assay on NCI-H460 [4] and less than 4.00 in the assay with PC-3 [7].

For the compound `CC1(C)Cc2c(ccc(C(=O)/C=C/c3cn(-c4ccccc4)nc3-c3ccccc3)c2OCc2ccccc2)O1`, the inhibition of growth at 100 µM in the assay with NCI-H460 [6] was less than 10%. In addition, the pIC50 in the assay on B16 [2], with HT-29 [5] and in the assay on PC-3 [7] was less than 4.00 in each case.

As to `COc1ccc(/C=C/C(=O)c2ccc3c(c2OCc2ccccc2)CC(C)(C)O3)cc1`, the results for the pIC50 with B16 [2], in the assay on NCI-H460 [4] and in the assay on PC-3 [7] were less than 4.00, less than 4.00 and 4.31, respectively. Also, the inhibition of growth at 100 µM in the assay with HT-29 [3] is less than 10%.

Regarding `CC1(C)Cc2c(OCc3ccccc3)ccc(C(=O)/C=C/c3cn(-c4ccccc4)nc3-c3cccc([N+](=O)[O-])c3)c2O1`, the inhibition of growth at 100 µM with HT-29 [3] and in the assay with B16 [8] was less than 10% in each case. The pIC50 in the assay on NCI-H460 [4] was less than 4.00; in the assay with PC-3 [7] it was 5.23.

Take `CC1(C)Cc2c(OCc3ccccc3)ccc(C(=O)/C=C/c3cn(-c4ccccc4)nc3-c3ccc(Cl)cc3)c2O1`: the inhibition of growth at 100 µM in the assay on NCI-H460 [6], with HT-29 [3] and with B16 [8] was less than 10% each time. Further, the pIC50 in the assay with PC-3 [7] is 5.08.

Regarding `CC1(C)Cc2c(ccc(C(=O)/C=C/c3ccc(Br)cc3)c2OCc2ccccc2)O1`, the inhibition of growth at 100 µM in the assay with HT-29 [3] and in the assay with B16 [8] was less than 10% throughout. In addition, the negative logarithm of the IC50 (pIC50) in the assay on NCI-H460 [4] was less than 4.00; with PC-3 [7] it was less than 4.30.

Take `CC1(C)Cc2c(ccc(C(=O)/C=C/c3cn(-c4ccccc4)nc3-c3ccc(Cl)cc3)c2OCc2ccccc2)O1`: the negative-log IC50 (pIC50) was less than 4.00 with HT-29 [5], less than 4.00 in the assay with NCI-H460 [4] and 4.59 with PC-3 [7]. Besides, in the assay with B16 [8], the inhibition of growth at 100 µM is less than 10%.

For the compound `CC1(C)Cc2c(O)ccc(C(=O)/C=C/c3cn(-c4ccccc4)nc3-c3ccc(Cl)cc3)c2O1`, the negative logarithm of the IC50 (pIC50) in the assay on PC-3 [7] was 4.74.

As to `COc1ccc(/C=C/C(=O)c2ccc(OCc3ccccc3)c3c2OC(C)(C)C3)cc1`, the inhibition of growth at 100 µM with HT-29 [3] and in the assay on B16 [8] was less than 10% throughout. Besides, the pIC50 was less than 4.00 with NCI-H460 [4] and 4.87 in the assay with PC-3 [7].

In turn, `CC1(C)Cc2c(O)ccc(C(=O)/C=C/c3cn(-c4ccccc4)nc3-c3cccc([N+](=O)[O-])c3)c2O1` showed a negative logarithm of the IC50 (pIC50) with PC-3 [7] of 4.59.

For the compound `CC1(C)Cc2c(ccc(C(=O)/C=C/c3ccccc3)c2OCc2ccccc2)O1`, the negative logarithm of the IC50 (pIC50) in the assay with B16 [2], in the assay on HT-29 [5], in the assay with NCI-H460 [4] and in the assay with PC-3 [7] was less than 4.00 throughout.

In the case of `CC1(C)Cc2c(OCc3ccccc3)ccc(C(=O)/C=C/c3ccc(Br)cc3)c2O1`, the negative-log IC50 (pIC50) in the assay with HT-29 [5], in the assay on NCI-H460 [4] and with PC-3 [7] was less than 4.00 in each case. Further, the inhibition of growth at 100 µM in the assay on B16 [8] was less than 10%.

Compound `COc1ccc(-c2nn(-c3ccccc3)cc2/C=C/C(=O)c2ccc(O)c3c2OC(C)(C)C3)cc1` had a pIC50 in the assay with PC-3 [7] of 4.68.

On to `CC1(C)Cc2c(OCc3ccccc3)ccc(C(=O)/C=C/c3ccccc3)c2O1`, for which the inhibition of growth at 100 µM in the assay with PC-3 [1] and with HT-29 [3] was less than 10% in each case. In addition, the negative-log IC50 (pIC50) was 4.52 with B16 [2] and less than 4.00 with NCI-H460 [4].

As for `Cc1ccc(-c2nn(-c3ccccc3)cc2/C=C/C(=O)c2ccc(OCc3ccccc3)c3c2OC(C)(C)C3)cc1`, the inhibition of growth at 100 µM in the assay with NCI-H460 [6] and with HT-29 [3] was less than 10% each time. For the same compound, the pIC50 in the assay with B16 [2] and in the assay on PC-3 [7] was less than 4.00 throughout.

As for `CC1(C)Cc2c(OCc3ccccc3)ccc(C(=O)/C=C/c3cn(-c4ccccc4)nc3-c3ccc([N+](=O)[O-])cc3)c2O1`, the pIC50 in the assay on B16 [2], with HT-29 [5], with NCI-H460 [4] and in the assay with PC-3 [7] was less than 4.00 each time.

As for `CC1(C)Cc2c(OCc3ccccc3)ccc(C(=O)/C=C/c3ccc(Cl)cc3Cl)c2O1`, the inhibition of growth at 100 µM with NCI-H460 [6], in the assay with HT-29 [3] and with B16 [8] was less than 10% each time. This compound also had a pIC50 in the assay with PC-3 [7] of less than 4.00.

In the case of `COc1ccc(-c2nn(-c3ccccc3)cc2/C=C/C(=O)c2ccc3c(c2OCc2ccccc2)CC(C)(C)O3)cc1`, the negative logarithm of the IC50 (pIC50) with HT-29 [5] is less than 4.00; in the assay with NCI-H460 [4], less than 4.00; in the assay on PC-3 [7] it was 4.74. Besides, the inhibition of growth at 100 µM with B16 [8] is less than 10%.

Consider `CC1(C)Cc2c(ccc(C(=O)/C=C/c3cn(-c4ccccc4)nc3-c3ccc([N+](=O)[O-])cc3)c2OCc2ccccc2)O1`, for which the inhibition of growth at 100 µM in the assay with NCI-H460 [6], in the assay on HT-29 [3] and in the assay with B16 [8] was less than 10% each time. This compound gave a pIC50 in the assay with PC-3 [7] of 4.21.

With `Cc1ccc(-c2nn(-c3ccccc3)cc2/C=C/C(=O)c2ccc3c(c2OCc2ccccc2)CC(C)(C)O3)cc1`, the pIC50 is less than 4.00 with HT-29 [5], less than 4.00 with NCI-H460 [4] and 4.62 in the assay on PC-3 [7]. Besides, the inhibition of growth at 100 µM with B16 [8] is less than 10%.

On to `CC1(C)Cc2c(ccc(C(=O)/C=C/c3ccc(F)cc3)c2OCc2ccccc2)O1`, for which the pIC50 was less than 4.00 in the assay with B16 [2], 4.64 in the assay on HT-29 [5], 4.12 in the assay on NCI-H460 [4] and 4.35 in the assay on PC-3 [7].

`COc1cccc2c1C(=O)c1c(O)c3c(c(O)c1C2=O)C[C@@](O)(C(=O)CO)C[C@@H]3O[C@H]1C[C@H](N)[C@H](O)[C@H](C)O1` [DOXORUBICIN]: the pIC50 with B16 [2] is 7.52; in the assay on HT-29 [5], 4.71; in the assay with NCI-H460 [4], 5.25; in the assay with PC-3 [7], 5.23.

Take `CC1(C)Cc2c(OCc3ccccc3)ccc(C(=O)/C=C/c3cn(-c4ccccc4)nc3-c3ccccc3)c2O1`: the inhibition of growth at 100 µM in the assay with NCI-H460 [6], in the assay with PC-3 [1] and with HT-29 [3] was less than 10% each time. The compound also gave a pIC50 in the assay on B16 [2] of less than 4.00.

Regarding `COc1ccc(/C=C/C(=O)c2ccc(O)c3c2OC(C)(C)C3)cc1`, the negative logarithm of the IC50 (pIC50) in the assay on PC-3 [7] is 4.32.

As to `COc1ccc(-c2nn(-c3ccccc3)cc2/C=C/C(=O)c2ccc(OCc3ccccc3)c3c2OC(C)(C)C3)cc1`, the inhibition of growth at 100 µM with NCI-H460 [6] and with B16 [8] was less than 10% in each case. Besides, the pIC50 with HT-29 [5] is less than 4.00; in the assay on PC-3 [7], 5.10.
